Data on eleven compounds can be found in patent US10821115B2, “Compounds that inhibit Mcl-1 protein” (priority 2017, dated 2020).

Like-named read-outs stand apart in the source and are kept apart here.

The target of test [1] is recombinant human Mcl-1 (residues 171-327) / Bim interaction (Homo sapiens (Human), UniProt Q07820). In words: biochemical. It counts as binding. The conditions noted are these: read-out: Mcl-1 HTRF IC50. In general terms: TR-FRET usually uses a lanthanide donor and a delayed reading to cut background.
Chain of recombinant human Mcl-1 (residues 171-327) / Bim interaction (Q07820 171-327): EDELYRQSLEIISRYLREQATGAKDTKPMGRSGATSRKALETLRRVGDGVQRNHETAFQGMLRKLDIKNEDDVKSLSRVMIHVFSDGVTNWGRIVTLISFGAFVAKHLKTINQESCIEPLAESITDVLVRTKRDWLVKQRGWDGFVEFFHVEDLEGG
The subject of test [2] is human multiple myeloma cell line, OPM-2. In words: Cell viability assay (OPM-2 10 FBS), CellTiter-Glo. The test is classed as cell-based. In a few lines: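 Serially diluted test compounds are incubated 16 h with cells (3000/well) in RPMI 1640 supplemented with 10% FBS. Viability is then measured by luminescence and IC50 calculated by 4-parameter logistic fit.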
(In general: Cellular ATP, detected with luciferase, serves as a proxy for viable cell number.)

Where [3] appears, read: TR-FRET, Mcl-1(171-327) / biotin-Bim (51-76).
Setting [4] is: read-out: OPM-2 10% FBS IC50 IP, OPM-2 cells, 10% FBS, 16 h, CellTiter-Glo.
Setting [5] is: Homo sapiens, OPM-2, 16 h, read-out: OPM-2 10% FBS IC50 IP, OPM-2 cells, 10% FBS, 16 h, CellTiter-Glo.
Setting [6] is: 0.1 nM Mcl-1(171-327), 0.05 nM biotin-Bim (51-76).
Where [7] appears, read: Homo sapiens, OPM-2, 16 h, read-out: OPM-2 10% FBS IC50 IP, OPM-2 cells, 10% FBS, 16 h incubation.

One may read the IC50 as the point on the concentration scale where inhibition reaches its midpoint.

In the case of `C[C@@H]1[C@@H](C)C/C=C/[C@](O)(Cc2ccnc(C#N)c2)[C@@H]2CC[C@H]2CN2C[C@@]3(CCCc4cc(Cl)ccc43)COc3ccc(cc32)C(=O)NS1(=O)=O` [Example 100187, 4-(((1S,3′R,6′R,7′R,8′E,11′S,12′R)-6-chloro-7′-hydroxy-11′,12′-dimethyl-13′,13′-dioxido-15′-oxo-3,4-dihydro-2H-spiro[naphthalene-1,22′-[20]oxa[13]thia[1,14]diazatetracyclo [14.7.2.0~3,6~.0~19,24~]pentacosa[8,16,18,24]tetraen]-7′-yl)methyl)-2-pyridinecarbonitrile], the IC50 in test [1] (setting [3]) was found to be 2.76 nM; in test [2] (setting [4]), 3110 nM.

Regarding `CO[C@@]1(C[C@@H](C)O)/C=C/C[C@H](C)[C@@H](C)S(=O)(=O)NC(=O)c2ccc3c(c2)N(C[C@@H]2CC[C@H]21)C[C@@]1(CCCc2cc(Cl)ccc21)CO3` [Example 100435, (1S,3′R,6′R,7′S,8′E,11′S,12′R)-6-chloro-7′-((2R)-2-hydroxypropyl)-7′-methoxy-11′,12′-dimethyl-3,4-dihydro-2H,15′H-spiro[naphthalene-1,22′-[20]oxa[13]thia[1,14]diazatetracyclo [14.7.2.0~3,6~.0~19,24~]pentacosa[8,16,18,24]tetraen]-15′-one 13′,13′-dioxide], the results for the IC50 in test [1] (setting [3]) and in test [2] (setting [5]) were 0.055 nM and 305 nM, respectively.

`C[C@@H]1[C@@H](C)C/C=C/[C@@](O)(C[S@@+](C)[O-])[C@@H]2CC[C@H]2CN2C[C@@]3(CCCc4cc(Cl)ccc43)COc3ccc(cc32)C(=O)NS1(=O)=O` (stereo in doubt) [Example 100074]: the IC50 in test [1] (setting [3]) is 0.731 nM; in test [2] (setting [5]) it was 3020 nM.

Turning to `C[C@@H]1[C@@H](C)C/C=C/[C@@](O)(C2SCCCS2)[C@@H]2CC[C@H]2CN2C[C@@]3(CCCc4cc(Cl)ccc43)COc3ccc(cc32)C(=O)NS1(=O)=O` [Example 100260, (1S,3′R,6′R,7′S,8′E,11′S,12′R)-6-chloro-7′-(1,3-dithian-2-yl)-7′-hydroxy-11′,12′-dimethyl-3,4-dihydro-2H,15′H-spiro[naphthalene-1,22′-[20]oxa[13]thia[1,14]diazatetracyclo [14.7.2.0~3,6~.0~19,24~]pentacosa[8,16,18,24]tetraen]-15′-one 13′,13′-dioxide], the IC50 in test [1] (setting [3]) is 0.408 nM; in test [2] (setting [5]) it was 94 nM.

On to `CCO[C@@]1(CN2CCN3CCOC[C@@H]3C2)/C=C/C[C@H](C)[C@@H](CC2CCC2)S(=O)(=O)NC(=O)c2ccc3c(c2)N(C[C@@H]2CC[C@H]21)C[C@@]1(CCCc2cc(Cl)ccc21)CO3` [Example 44, (1S,3′R,6′R,7′S,8′E,11′S,12′R)-6-chloro-12′-(cyclobutylmethyl)-7′-ethoxy-7′-((9aS)-hexahydropyrazino[2,1-c][1,4]oxazin-8(1H)-ylmethyl)-11′-methyl-3,4-dihydro-2H,15′H-spiro[naphthalene-1,22′-[20]oxa[13]thia[1,14]diazatetracyclo [14.7.2.0~3,6~.0~19,24~]pentacosa[8,16,18,24]tetraen]-15′-one 13′,13′-dioxide], for which the IC50 was 0.288 nM in test [1] (setting [6]) and 1360 nM in test [2] (setting [7]).

Regarding `C[C@@H]1[C@@H](C)C[C@H]2CCC[C@](O)(C2)[C@@H]2CC[C@H]2CN2C[C@@]3(CCCc4cc(Cl)ccc43)COc3ccc(cc32)C(=O)NS1(=O)=O` [Example 100062, (1S,3′R,6′R,7′S,11′R,13′S,14′R)-6-chloro-7′-hydroxy-13′,14′-dimethyl-3,4-dihydro-2H,17′H-spiro[naphthalene-1,24′-[22]oxa[15]thia[1,16]diazapentacyclo [16.7.2.1~7,11~.0~3,6~.0~21,26~]octacosa [18,20,26]trien]-17′-one 15′,15′-dioxide], the IC50 was 4.25 nM in test [1] (setting [3]) and 9940 nM in test [2] (setting [5]).

Consider `CO[C@]1(CN2CCN3CCCC[C@@H]3C2)/C=C/C[C@H](C)[C@@H](CC=O)S(=O)(=O)NC(=O)c2ccc3c(c2)N(C[C@@H]2CC[C@H]21)C[C@@]1(CCCc2cc(Cl)ccc21)CO3` [Example 360, ((1S,3′R,6′R,7′R,8′E,11′S,12′R)-6-Chloro-7′-methoxy-11′-methyl-7′-((9aR)-octahydro-2H-pyrido[1,2-a]pyrazin-2-ylmethyl)-13′,13′-dioxido-15′-oxo-3,4-dihydro-2H-spiro[naphthalene-1,22′-[20]oxa[13]thia[1,14]diazatetracyclo[14.7.2.0-3,6˜.0˜19,24˜]pentacosa[8,16,18,24]tetraen]-12′-yl)acetaldehyde], for which the IC50 was 1.07 nM in test [1] (setting [6]) and 2410 nM in test [2] (setting [7]).

Take `CC[C@@H]1CC/C=C/[C@](COCCN2CCOCC2)(OC)[C@@H]2CC[C@H]2CN2C[C@@]3(CCCc4cc(Cl)ccc43)COc3ccc(cc32)C(=O)NS1(=O)=O` (single isomer, unassigned) [Example 100597]: the half-inhibitory concentration (IC50) in test [1] (setting [3]) was 0.263 nM; in test [2] (setting [5]), 577 nM.

Regarding `C[C@@H]1[C@@H](C)CCC[C@@](O)(CC(=O)N2CCOC2=O)[C@@H]2CC[C@H]2CN2C[C@@]3(CCCc4cc(Cl)ccc43)COc3ccc(cc32)C(=O)NS1(=O)=O` (stereo in doubt) [Example 100154, (1S,3′R,6′R,7′R,11′S,12′R)-6-chloro-7′-hydroxy-11′,12′-dimethyl-7′-(2-oxo-2-(2-oxo-1,3-oxazolidin-3-yl)ethyl)-3,4-dihydro-2H,15′H-spiro[naphthalene-1,22′-[20]oxa[13]thia[1,14]diazatetracyclo [14.7.2.0~3,6~.0~19,24~]pentacosa[16,18,24]rien]-15′-one 13′,13′-dioxide], the 50% inhibitory concentration (IC50) in test [1] (setting [3]) is 1.72 nM; in test [2] (setting [4]), 1070 nM.

For the compound `CO[C@]1(CN2C[C@@H](C)N(C(C)C)[C@H](C)C2)/C=C/C[C@H](C)[C@@H](C)S(=O)(=O)NC(=O)c2ccc3c(c2)N(C[C@@H]2CC[C@H]21)C[C@@]1(CCCc2cc(Cl)ccc21)CO3` [Example 343, (1S,3′R,6′R,7′R,8′E,11′S,12′R)-6-chloro-7′-(((3R,5R)-3,5-dimethyl-4-(1-methylethyl)-1-piperazinyl)methyl)-7′-methoxy-11′,12′-dimethyl-3,4-dihydro-2H,15′H-spiro[naphthalene-1,22′-[20]oxa[13]thia[1,14]diazatetracyclo [14.7.2.0~3,6~.0~19,24~]pentacosa[8,16,18,24]tetraen]-15′-one 13′,13′-dioxide], the IC50 stood at 0.093 nM in test [1] (setting [6]) and 94 nM in test [2] (setting [7]).

`CO[C@@]1(CN2CCN(CC3OCCO3)CC2)/C=C/C[C@H](C)[C@@H](C)S(=O)(=O)NC(=O)c2ccc3c(c2)N(C[C@@H]2CC[C@H]21)C[C@@]1(CCCc2cc(Cl)ccc21)CO3` [Example 309, (1S,3′R,6′R,7′S,8′E,11′S,12′R)-6-chloro-7′-((4-(1,3-dioxolan-2-ylmethyl)-1-piperazinyl)methyl)-7′-methoxy-11′,12′-dimethyl-3,4-dihydro-2H,15′H-spiro[naphthalene-1,22′-[20]oxa[13]thia[1,14]diazatetracyclo [14.7.2.0~3,6~.0~19,24~]pentacosa[8,16,18,24]tetraen]-15′-one 13′,13′-dioxide]: the IC50 worked out at 0.215 nM in test [1] (setting [6]) and 64 nM in test [2] (setting [7]).
